According to the supplement of paper PMC4862054:

Key:
Experiment in all cases: normalised response (% of control), CellTiter-Glo; higher = more viable cells (100 = DMSO, 0 = benzethonium chloride kill control)
Conditions in all cases: incubation time: 72 h
CAL-148 = system: CAL-148
Outline: (§1)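 CellTox Green fluorescence (485/520 nm) and, after 10 min at room temperature, CellTiter-Glo luminescence were read from breast cancer cell lines incubated 72 h in 384-well plates. Cells were seeded as 20 µl suspension onto compound at 5 concentrations in 10-fold steps over a 10,000-fold range chosen per compound. Each plate was normalised to 0.1 % DMSO (100) and a positive kill control (0). Values are normalised signals, one per concentration.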

HCC1599 = system: HCC1599
Outline: as §1

HCC1937 = system: HCC1937
Outline: as §1

MCF-10A = system: MCF-10A
Outline: as §1

MFM-223 = system: MFM-223
Outline: as §1

HDQ-P1 = system: HDQ-P1
Outline: as §1

HCC1143 = system: HCC1143
Outline: as §1

CAL-51 = system: CAL-51
Outline: as §1

MDA-MB-231 = system: MDA-MB-231
Outline: as §1

CAL-85-1 = system: CAL-85-1
Outline: as §1

MDA-MB-436 = system: MDA-MB-436
Outline: as §1

BT-549 = system: BT-549
Outline: as §1

MDA-MB-468 = system: MDA-MB-468
Outline: as §1

DU-4475 = system: DU-4475
Outline: as §1

MDA-MB-453 = system: MDA-MB-453
Outline: as §1

Hs578T = system: Hs578T
Outline: as §1

CAL-120 = system: CAL-120
Outline: as §1

BT-474 = system: BT-474
Outline: as §1

Row | Structure (SMILES) | normalised response (CAL-148) [%] | normalised response (HCC1599) [%] | normalised response (HCC1937) [%] | normalised response (MCF-10A) [%] | normalised response (MFM-223) [%] | normalised response (HDQ-P1) [%] | normalised response (HCC1143) [%] | normalised response (CAL-51) [%] | normalised response (MDA-MB-231) [%] | normalised response (CAL-85-1) [%] | normalised response (MDA-MB-436) [%] | normalised response (BT-549) [%] | normalised response (MDA-MB-468) [%] | normalised response (DU-4475) [%] | normalised response (MDA-MB-453) [%] | normalised response (Hs578T) [%] | normalised response (CAL-120) [%] | normalised response (BT-474) [%]
1 | CCc1cncnc1N1CCN(Cc2nc3ccc(C(F)(F)F)cc3[nH]2)CC1 (10 nM) | 115 | 98.7 | 98.1 | 113 | 103 | 98.8 | 111 | 111 | 108 | 99.1 | 109 | 93.2 | 101 | 104 | 110 | 107 | 101 | 108
2 | O=C(O)C1(C(=O)O)CCC1.[NH2-].[NH2-].[Pt+2] [Carboplatin] (10 nM) | 105 | 99.2 | 96.6 | 103 | 98.4 | 96.9 | 104 | 57.9 | 97 | 99.5 | 95.4 | 102 | 96.8 | 95.9 | 99.7 | 101 | 99.3 | 103
3 | Cc1ccc(-c2cc(C(F)(F)F)nn2-c2ccc(S(N)(=O)=O)cc2)cc1 [Celecoxib] (10 nM) | 102 | 105 | 98.3 | 105 | 102 | 98.1 | 104 | 106 | 100 | 103 | 105 | 102 | 100 | 101 | 115 | 107 | 101 | 27.3
4 | Nc1ncn([C@H]2C[C@H](O)[C@@H](CO)O2)c(=O)n1 [Decitabine] (10 nM) | 95.4 | 102 | 94.6 | 98.5 | 103 | 98.8 | 103 | 124 | 102 | 90 | 97.3 | 93 | 96 | 105 | 97.7 | 96.3 | 103 | 104
5 | Nc1ccccc1NC(=O)c1ccc(CNC(=O)OCc2cccnc2)cc1 [Entinostat] (10 nM) | 104 | 95.7 | 99.5 | 109 | 103 | 97.5 | 101 | 94 | 98.6 | 107 | 102 | 96.8 | 98.4 | 101 | 94.6 | 102 | 94.2 | 100
6 | Nc1nc(F)nc2c1ncn2[C@@H]1O[C@H](CO)[C@@H](O)[C@@H]1O [Fludarabine] (10 nM) | 108 | 98.5 | 107 | 116 | 110 | 97 | 108 | 120 | 109 | 98.8 | 109 | 101 | 105 | 107 | 103 | 105 | 101 | 108
7 | N#Cc1ccc(C(c2ccc(C#N)cc2)n2cncn2)cc1 [Letrozole] (10 nM) | 99.3 | 98.2 | 97.6 | 108 | 103 | 97.8 | 97.4 | 126 | 101 | 99.9 | 97.1 | 95.3 | 99.6 | 98.2 | 102 | 103 | 95.7 | 103
8 | Cc1cnc(NC(=O)Nc2cc(Br)c(C)cc2OC[C@@H]2CNCCO2)cn1 [Rabusertib] (1 nM) | 118 | 101 | 106 | 105 | 113 | 90.4 | 104 | 115 | 107 | 103 | 104 | 94.6 | 94.9 | 108 | 109 | 102 | 98.1 | 103
9 | COc1cc([C@@H]2c3cc4c(cc3[C@@H](O[C@@H]3O[C@@H]5CO[C@@H](c6cccs6)O[C@H]5[C@H](O)[C@H]3O)[C@H]3COC(=O)[C@H]23)OCO4)cc(OC)c1O [Teniposide] (10 nM) | 93.2 | 103 | 101 | 98.8 | 98 | 95.3 | 96.9 | 112 | 99.4 | 100 | 89.7 | 91.9 | 98.3 | 78.2 | 101 | 100 | 105 | 96.8
10 | Oc1ncc(N(CCCl)CCCl)c(O)n1 [Uracil mustard] (10 nM) | 107 | 87 | 99.7 | 106 | 103 | 95.1 | 105 | 80.1 | 105 | 95.2 | 105 | 97.2 | 90.3 | 97.7 | 88.8 | 107 | 102 | 103
11 | CCCCC(=O)OCC(=O)[C@]1(O)Cc2c(O)c3c(c(O)c2[C@@H](O[C@H]2C[C@H](NC(=O)C(F)(F)F)[C@H](O)[C@H](C)O2)C1)C(=O)c1c(OC)cccc1C3=O [Valrubicin] (5 nM) | 105 | 96.5 | 102 | 106 | 105 | 95.5 | 102 | 60.1 | 97 | 95.6 | 101 | 91.1 | 93.1 | 101 | 103 | 102 | 94.6 | 97.6
